Measured values as given in ChEMBL document CHEMBL1201862, “PubChem BioAssay data set” (2004).
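Cultured in 96-well plates, cells were exposed to test compound for 48 hours across five concentrations. Abbreviation: GI50, concentration required for 50% inhibition of growth.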 The source made the active and inactive calls. Rule as the data show it: active = GI50 up to about 1.1 µM and inactive = higher.

Legend:
Assay in all cases: DTP human tumour cell line panel, 48 h
[1] = tested on: A549
[2] = tested on: BT-549
[3] = tested on: CAKI-1
[4] = tested on: CCRF-CEM
[5] = tested on: DU-145
[6] = tested on: HCT-116
[7] = tested on: LOX IMVI
[8] = tested on: M14
[9] = tested on: MCF7
[10] = tested on: MDA-N
[11] = tested on: NCI-H226
[12] = tested on: NCI/ADR-RES
[13] = tested on: OVCAR-3
[14] = tested on: SF-295
[15] = tested on: SF-539
[16] = tested on: SK-MEL-28
[17] = tested on: SK-OV-3
[18] = tested on: SNB-75
[19] = tested on: T47D
[20] = tested on: TK-10

SMILES | GI50 [1] | GI50 [2] | GI50 [3] | GI50 [4] | GI50 [5] | GI50 [6] | GI50 [7] | GI50 [8] | GI50 [9] | GI50 [10] | GI50 [11] | GI50 [12] | GI50 [13] | GI50 [14] | GI50 [15] | GI50 [16] | GI50 [17] | GI50 [18] | GI50 [19] | GI50 [20]
Fc1ccc(NC(=S)SCc2ccc3c(c2)OCO3)cc1F | 15.6 µM (inactive) | 21.1 µM (inactive) | 27.7 µM (inactive) | 23.4 µM (inactive) | 31.6 µM (inactive) | 49.3 µM (inactive) | 15.3 µM (inactive) | 20.4 µM (inactive) | 18.7 µM (inactive) | 17.6 µM (inactive) | 37.7 µM (inactive) | 25.2 µM (inactive) | 29.2 µM (inactive) | 18.4 µM (inactive) | 22.7 µM (inactive) | 3.76 µM (inactive) | 53.6 µM (inactive) | 20.6 µM (inactive) | 10.8 µM (inactive) | 30.1 µM (inactive)
CC(C)=CCC[C@@H](C)C1=C(Nc2ccccc2F)C(=O)C(C)=C(O)C1=O | 4.09 µM (inactive) | 8.09 µM (inactive) | 5.83 µM (inactive) | 0.869 µM (active) | 9.35 µM (inactive) | 4.58 µM (inactive) | 4.78 µM (inactive) | 14.2 µM (inactive) | 9.95 µM (inactive) | 10.6 µM (inactive) | 5.3 µM (inactive) | 2.55 µM (inactive) | 4.51 µM (inactive) | 3.65 µM (inactive) | 10.1 µM (inactive) | 17.6 µM (inactive) | 6.47 µM (inactive) | 12.7 µM (inactive) | 13.6 µM (inactive) | 5.82 µM (inactive)
COC(=O)c1ccccc1/C=C1\Cc2ccc3c(c2C1=O)CCCC3 | > 100 µM (inactive) | > 100 µM (inactive) | > 100 µM (inactive) | > 100 µM (inactive) | > 100 µM (inactive) | > 100 µM (inactive) | > 100 µM (inactive) | > 100 µM (inactive) | > 100 µM (inactive) | > 100 µM (inactive) | > 100 µM (inactive) | > 100 µM (inactive) | > 100 µM (inactive) | > 100 µM (inactive) | > 100 µM (inactive) | > 100 µM (inactive) | > 100 µM (inactive) | > 100 µM (inactive) | > 100 µM (inactive) | > 100 µM (inactive)
CC(C)(CN1CCCCC1)C(=O)/C=C/c1c(Cl)cccc1Cl | 1.95 µM (inactive) | 1.86 µM (inactive) | 1.08 µM (active) | 0.52 µM (active) | 0.769 µM (active) | 0.637 µM (active) | 0.811 µM (active) | 0.863 µM (active) | 1.29 µM (inactive) | 0.792 µM (active) | 2.65 µM (inactive) | 1.86 µM (inactive) | 0.955 µM (active) | 2.64 µM (inactive) | 2.08 µM (inactive) | 1.56 µM (inactive) | 2.49 µM (inactive) | 0.735 µM (active) | 0.421 µM (active) | 0.627 µM (active)
